Assay results taken from US9029381B2, “Cyclopropyl amide derivatives” (Astrazeneca AB, priority 2007, dated 2015).

Assays:
[1] = biological target: human histamine H3 receptors (Homo sapiens (Human), UniProt Q9Y5N1); assay: Histamine H3 SPA with the agonist radioligand [3H]-N-α-methylhistamine (hH3 binding); settings: inhibition of [3H]-N-α-methylhistamine (1.4 nM) binding to CHO-K1 membranes expressing full-length human H3 (isoform 445)
Method: Histamine H3 SPA with the Agonist Radioligand [^3H]-N-α-Methylhistamine
The H3 binding assay was/can be used to evaluate the ability of at least one compound in accordance with formula I, Ia, Ib, and/or Ic to inhibit [^3H]-N-α-methylhistamine binding to CHO-K1 membranes expressing human histamine H3 receptors (full-length H3, the most prevalent brain isoform 445). In 200 μl 96-well SPA format, human H3 membranes (12.5 μg protein/well) and 1.4 nM [^3H]-N-α-methylhistamine were/can be incubated with at least one compound in accordance with formula I, Ia, Ib, and/or Ic for 1.5 hrs to determine percent effect with respect to total (1% DMSO) and non-specific binding (10 μM imetit). […] Single poke (SP) testing can be done in triplicate.
Membranes, prepared from CHO-K1 cells stably expressing the human histamine H3 receptor, can be obtained from ACS.
Tested formula I, Ia, Ib, and/or Ic compounds were/can be provided as solubilized samples in neat DMSO. Serial dilutions were/can be performed in DMSO.
Plates were/can be 96-well Unifilter GF/B (Perkin Elmer, 6005177). Plates were/can be read on a Perkin Elmer TopCount. CPM data was/can be used to analyze unless DPM data generated by a quench curve was/is required.
• 1. 1 mg/ml BSA was/can be added to assay buffer (AB) on day of assay. • 2. Amounts required for bead/membrane pool in AB were/can be calculated: “P”−need 17.1 ml/assay plate+10 ml PlateMate excess. Buffer volume was/can be split between beads and membranes to allow for polytroning of membranes prior to addition to beads. • a. […] A minimum of 15 minutes was/can be waited prior to adding membranes (See b. below). • b. Membranes (hH3 membranes from CHO cells containing recombinant human H3 receptors, 11.7 mg/ml): membranes were/can be removed from −80° C. and thawed in RT waterbath. (0.0702 mg/ml×P) mg of membranes were/can be resuspended in the remaining volume not used with beads above for 12.5 μg/well final and homogenized briefly at polytron speed 5.0. The homogenized membrane mixture was/can be combined with the beads and a minimum of 30 minutes was/can be waited prior to dispensing to plate. • 3. Formula I, Ia, Ib, and/or Ic compounds: For Single Poke, 2 μl mM of a compound in accordance with formula I, Ia, Ib, and/or Ic was/can be dispensed to Optiplates (triplicate plates) for final a concentration of 10 μM. […] Imetit (see below) was/can be used as a control. • 4. […] [^3H]-N-α-methylhistamine ([^3H]-NAMH): A solution in AB at 14 nM, 10× final concentration of 1.4 nM was/can be prepared. 5 μl samples were/can be calculated in quadruplicate on the 13 counter. If concentration was/is 12-14.5 nM, no adjustment was/is may be required. (For IC50s, use final concentration on calculation tab of ABase template.) Assay • 1. […] 2 μl of the formula I, Ia, Ib, and/or Ic compound dilution was/can be mixed and then transferred into assay plates. DMSO was/can be removed and 2 μl of 100 μM Imetit was/can be added to the wells. • 3. 178 μl bead/membrane mixture was/can be dispensed into the assay plate. • 4. 20 μl [^3H]-NAMH was/can be added with Rapid Plate. The assay plate was/can be sealed and incubated for 1.5 hr on RT shaker at speed ˜6.5. • 5. The assay plate was/can be subsequently centrifuged at 1000 rpm for 10 minutes. • 6. The count was/can be performed on TopCount using one of the 3H SPA H3 Quench programs.
The DPM data was/can be analyzed when tSIS was/is less than that associated with 70% of full scale on the quench curve (tSIS<25%). Otherwise, CPM data was/is used.
(§1) The IC50 and nH can be determined by fitting the data to model 205 in XLfit: y=A+((B−A)/(1+((C/x)^D)). Guanosine 5′-O-(3-[^35S]thio)triphosphate [GTPγS] Binding Assay

[2] = biological target: human Histamine H3 receptor (hH3R) (Homo sapiens (Human), UniProt Q9Y5N1); assay: Guanosine 5'-O-(3-[35S]thio)triphosphate [GTPγS] binding assay; format: biochemical; settings: antagonist mode vs (R)-α-methyl histamine 30 nM; membranes from CHO cells expressing hH3R
Sequence of human Histamine H3 receptor (hH3R) (Q9Y5N1 whole entry): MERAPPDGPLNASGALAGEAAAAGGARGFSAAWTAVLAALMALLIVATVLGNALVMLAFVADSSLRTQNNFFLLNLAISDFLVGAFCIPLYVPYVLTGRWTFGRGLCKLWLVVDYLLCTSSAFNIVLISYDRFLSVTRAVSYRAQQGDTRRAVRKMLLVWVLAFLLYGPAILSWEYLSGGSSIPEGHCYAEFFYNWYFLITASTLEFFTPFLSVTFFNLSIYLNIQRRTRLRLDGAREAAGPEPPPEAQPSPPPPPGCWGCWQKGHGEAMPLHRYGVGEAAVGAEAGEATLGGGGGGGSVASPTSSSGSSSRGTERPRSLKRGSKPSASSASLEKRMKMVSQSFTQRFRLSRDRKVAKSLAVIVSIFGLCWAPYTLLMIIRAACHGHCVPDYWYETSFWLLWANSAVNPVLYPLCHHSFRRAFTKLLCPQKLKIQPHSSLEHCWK
Method: as §1
A GTPγS binding assay can be used to investigate antagonist properties of compounds in CHO cells (Chinese Hamster Ovary) transfected with human Histamine H3 receptor (hH3R). Membranes from CHO cells expressing hH3R (10 μg/well) are diluted in GTPγS assay buffer (20 mM Hepes, 10 mM MgCl2, 100 mM NaCl, pH 7.4) and preincubated with saponine (3 μg/ml), GDP (10 μM) and PVT-WGA SPA beads (125 μg/well) (Amersham) for 30 minutes. To determine antagonist activity, (R)-α-methyl histamine (30 nM) is added in 96 well SPA plate with [^35S]GTPγS (0.2 nM) and various concentration of H3R antagonists. The GTPγS binding assay is started with addition of the mixture membrane/saponine/GDP and incubated for 90 minutes at room temperature. The amount of bound [^35S]GTPγS is determined by using the MicroBeta Trilux counter (PerkinElmer). The percentage of [^35S]GTPγS bound in each sample is calculated as a percentage of that bound control sample incubated in absence of H3 antagonist. Duplicate determinations are obtained for each concentration, and the data are analyzed using ExcelFit4 to obtain the IC50.

Sequence of human histamine H3 receptors (Q9Y5N1 whole entry, canonical isoform): as the sequence (Q9Y5N1 whole entry) above

Compound	IC50 [1] [nM]	IC50 [2] [nM]
O=C([C@H]1C[C@@H]1c1cccc(N2CCCC2=O)c1)N1CCN(C2CCC2)CC1 (relative stereo) [Example 34, trans-1-(3-(2-(4-Cyclobutylpiperazine-1-carbonyl)cyclopropyl)phenyl)pyrrolidin-2-one]	5.09	23.9
CCCN1CCN(C(=O)[C@H]2C[C@@H]2c2ccccc2)CC1 (relative stereo) [Example 7, trans-(2-Phenylcyclopropyl)-(4-propylpiperazin-1-yl)methanone]	146	39.7
O=C([C@H]1C[C@@H]1c1ccc(N2CCCC2=O)cc1)N1CCN(C2CCC2)CC1 (relative stereo) [Example 17, trans-1-{4-[2-(4-Cyclobutylpiperazine-1-carbonyl)cyclopropyl]phenyl}pyrrolidin-2-one]	433	196
O=C([C@H]1C[C@@H]1c1ccc(-c2cn[nH]c2)cc1)N1CCN(C2CCC2)CC1 (relative stereo) [Example 20, trans-{2-[4-(1H-Pyrazol-4-yl)phenyl]cyclopropyl}-(4-cyclobutylpiperazin-1-yl)methanone]	29.1	33.9
O=C([C@@H]1C[C@H]1c1ccc(Br)cc1)N1CCN(C2CCC2)CC1 [Example 15, (1R,2R)-(2-(4-bromophenyl)cyclopropyl)(4-cyclobutylpiperazin-1-yl)methanone]	3400	262
O=C([C@@H]1C[C@H]1c1ccccc1)N1CCN(C2CCC2)CC1 [Example 25, (4-cyclobutylpiperazin-1-yl)((1R,2R)-2-phenylcyclopropyl)methanone]	6420	870

Stronger by IC50 [2], values ahead:

IC50 [1] [nM]	IC50 [2] [nM]	Compound
–	20.2	O=C([C@H]1C[C@@H]1c1ccc(-c2cncnc2)cc1)N1CCN(C2CCC2)CC1 [Example 46, (4-cyclobutylpiperazin-1-yl)((1S,2S)-2-(4-(pyrimidin-5-yl)phenyl)cyclopropyl)methanone]
–	8.59	CS(=O)(=O)Nc1cccc([C@@H]2C[C@H]2C(=O)N2CCN(C3CCC3)CC2)c1 (relative stereo) [Example 30, trans-N-{3-[2-(4-Cyclobutylpiperazine-1-carbonyl)cyclopropyl]phenyl}methanesulfonamide]
16.8	6.81	O=C([C@H]1C[C@@H]1c1ccc(Br)cc1)N1CCN(C2CCC2)CC1 [Example 14, (1S,2S)-(2-(4-bromophenyl)cyclopropyl)(4-cyclobutylpiperazin-1-yl)methanone]
–	6.19	NC(=O)c1cccc([C@@H]2C[C@H]2C(=O)N2CCN(C3CCC3)CC2)c1 (single isomer, unassigned; enantiomer 1) [Example 36, 3-((trans)-2-(4-cyclobutylpiperazine-1-carbonyl)cyclopropyl)benzamide, enantiomer 1]
14.4	5.83	NC(=O)c1ccc([C@@H]2C[C@H]2C(=O)N2CCN(C3CCC3)CC2)cc1 (relative stereo) [Example 42, 4-((trans)-2-(4-cyclobutylpiperazine-1-carbonyl)cyclopropyl)benzamide]
3.49	3.41	O=C([C@H]1C[C@@H]1c1ccccc1)N1CCN(C2CCC2)CC1 [Example 24, (4-cyclobutylpiperazin-1-yl)((1S,2S)-2-phenylcyclopropyl)methanone]
